Data taken from ChEMBL document CHEMBL5150075 (J Med Chem, 2022).

What was measured:
[1] = test system: DU-145; assay: Antiproliferative activity against human DU-145 cells assessed as inhibition of cell growth incubated for 72 hrs by MTT assay; type: functional, cell-based; conditions: DU-145, 72 h
[2] = test system: A549; assay: Antitumor activity against paclitaxel-resistant human A549 cells xenografted in BALB/c nude mouse assessed as tumor growth inhibition at 24 mg/kg, po administered once daily and measured twice a week relative to control; type: functional; conditions: read-out: TGI
[3] = test system: MDA-MB-231; assay: cells; conditions: Homo sapiens, MDA-MB-231, 72 h
[4] = test system: NCI-H460; assay: cells; conditions: Homo sapiens, NCI-H460, 72 h
Description: Antiproliferative activity against human NCI-H460 cells assessed as inhibition of cell growth incubated for 72 hrs by MTT assay

[5] = test system: HUVEC; assay: Anti-angiogenesis activity against HUVEC cells assessed as inhibition of cell growth incubated for 72 hrs by MTT assay; type: functional, cell-based; conditions: Homo sapiens
[6] = test system: NCI-H1437; assay: Antiproliferative activity against human NCI-H1437 cells assessed as inhibition of cell growth incubated for 72 hrs by MTT assay; type: functional, cell-based; conditions: NCI-H1437, 72 h
[7] = test system: SW1990; assay: Antiproliferative activity against human SW1990 cells assessed as inhibition of cell growth incubated for 72 hrs by MTT assay; type: functional, cell-based; conditions: SW1990, 72 h
[8] = test system: HGC-27; assay: Antiproliferative activity against human HGC-27 cells assessed as inhibition of cell growth incubated for 72 hrs by MTT assay; type: functional, cell-based; conditions: HGC-27, 72 h
[9] = test system: HCT-116; assay: cells; conditions: Homo sapiens, HCT-116, 72 h
Description: Antiproliferative activity against human HCT-116 cells assessed as inhibition of cell growth incubated for 72 hrs by MTT assay

[10] = test system: HCT-8; assay: Antiproliferative activity against human HCT-8 cells assessed as inhibition of cell growth incubated for 72 hrs by MTT assay; type: functional, cell-based; conditions: HCT-8, 72 h
[11] = test system: A549; assay: Antiproliferative activity against paclitaxel-resistant human A549 cells assessed as inhibition of cell growth incubated for 72 hrs by MTT assay; type: functional, cell-based; conditions: A549, 72 h
[12] = test system: MCF7; assay: cells; conditions: Homo sapiens, MCF7, 72 h
Description: Antiproliferative activity against human MCF7 cells assessed as inhibition of cell growth incubated for 72 hrs by MTT assay

[13] = test system: NCI-H1299; assay: Antiproliferative activity against human NCI-H1299 cells assessed as inhibition of cell growth incubated for 72 hrs by MTT assay; type: functional, cell-based; conditions: NCI-H1299, 72 h
[14] = test system: B16-F10; assay: Antiproliferative activity against mouse B16-F10 cells assessed as inhibition of cell growth incubated for 72 hrs by MTT assay; type: functional, cell-based; conditions: B16-F10, 72 h
[15] = test system: HepG2; assay: cells; conditions: Homo sapiens, HepG2, 72 h
[16] = test system: MCF7R; assay: Antiproliferative activity against paclitaxel-resistant human MCF7R cells assessed as inhibition of cell growth incubated for 72 hrs by MTT assay; type: functional, cell-based
[17] = test system: BGC-823; assay: Antiproliferative activity against human BGC-823 cells assessed as inhibition of cell growth incubated for 72 hrs by MTT assay; type: functional, cell-based; conditions: BGC-823, 72 h
[18] = test system: A549; assay: cells; conditions: Homo sapiens, A549, 72 h

SMILES | IC50 [1] [nM] | other results
Cc1ccc(S(=O)(=O)Nc2cc(C(=O)NCc3cccnc3)ccc2C)cc1C | 970 | 
Cc1ccc(C(=O)NCc2cccnc2)cc1NS(=O)(=O)c1ccc(C#N)cc1 | > 10000 | 
Cc1ccc(S(=O)(=O)Nc2cc(C(=O)NCCc3cccnc3)ccc2C)cc1 | > 10000 | 
Cc1ccc(S(=O)(=O)Nc2ccc(C)c(C(=O)NCc3cccnc3)c2)cc1 | 2000 | 
Cc1ccc(S(=O)(=O)Nc2cc(C(=O)NCc3cccnc3)cc(C(F)(F)F)c2)cc1 | > 10000 | 
Cc1ccc(S(=O)(=O)Nc2cc(C(=O)NCc3cccnc3)ccc2C(F)(F)F)cc1 | > 10000 | 
CCCc1ccc(S(=O)(=O)Nc2cc(C(=O)NCc3cccnc3)ccc2C)cc1 | 9700 | 
Cc1ccc(S(=O)(=O)Nc2ccc(Cl)c(C(=O)NCc3cccnc3)c2)cc1 | > 10000 | 
CCCCc1ccc(S(=O)(=O)Nc2cc(C(=O)NCc3cccnc3)ccc2C)cc1 | > 10000 | 
Cc1ccc(S(=O)(=O)Nc2cc(C#N)cc(C(=O)NCc3cccnc3)c2)cc1 | > 10000 | 
Cc1ccc(S(=O)(=O)Nc2cc(C(=O)NCc3ccccc3)ccc2C)cc1 | > 10000 | 
Cc1ccc(C(=O)NCc2cccnc2)cc1NS(=O)(=O)c1ccc(F)cc1 | 3500 | 
Cc1ccc(C(=O)NCc2cccnc2)cc1NS(=O)(=O)c1ccc2c(c1)CCO2 | 1200 | 
Cc1ccc(C(=O)NCc2cccnc2)cc1NS(=O)(=O)c1ccc(OC(F)(F)F)cc1 | > 10000 | 
Cc1ccc(S(=O)(=O)Nc2ccc(F)c(C(=O)NCc3cccnc3)c2)cc1 | > 10000 | 
Cc1ccc(S(=O)(=O)Nc2cc(C(=O)NCc3ccccn3)ccc2C)cc1 | > 10000 | 

SMILES | IC50 [1] [nM] | other results
Cc1ccc(C(=O)NCc2cccnc2)cc1NS(=O)(=O)c1ccc(C(C)(C)C)cc1 | > 10000 | 
Cc1ccc(S(=O)(=O)Nc2cc(C(=O)NCc3ccncc3)ccc2C)cc1 | 1700 | 
COc1cc2c(c(OC)c1OC)-c1ccc(OC)c(=O)cc1[C@@H](NC(C)=O)CC2 [COLCHICINE] | 3 | IC50 [3]: 23 nM; IC50 [4]: 54 nM; IC50 [6]: 2 nM; IC50 [7]: 10 nM; IC50 [8]: 3 nM; IC50 [9]: 3 nM; IC50 [10]: 22 nM; IC50 [12]: 6 nM; IC50 [13]: 4 nM; IC50 [14]: 3 nM; IC50 [15]: 2 nM; IC50 [18]: 30 nM; IC50 [17]: 16 nM
Cc1ccc(C(=O)NCc2cccnc2)cc1NS(=O)(=O)c1ccc(Cl)cc1 | 930 | 
COc1ccc(NS(=O)(=O)c2ccc(C)cc2)cc1C(=O)NCc1cccnc1 | > 10000 | 
Cc1ccc(C(=O)NCc2cccnc2)cc1NS(=O)(=O)c1ccc(C(F)(F)F)cc1 | 5300 | 
Cc1ccc(S(=O)(=O)Nc2cc(C(=O)Nc3cccnc3)ccc2C)cc1 | > 10000 | 
Cc1ccc(C(=O)NCc2cccnc2)cc1NS(=O)(=O)c1ccccc1 | > 10000 | 
CNC(=O)c1ccc(C)c(NS(=O)(=O)c2ccc(C)cc2)c1 | > 10000 | 
COc1ccc(C(=O)NCc2cccnc2)cc1NS(=O)(=O)c1ccc(C)cc1 | 9500 | 
COc1cc(NS(=O)(=O)c2ccc(C)cc2)cc(C(=O)NCc2cccnc2)c1 | 6200 | 
Cc1ccc(C(=O)NCc2cccnc2)cc1NS(=O)(=O)c1ccc2ccccc2c1 | 1000 | 
Cc1ccc(S(=O)(=O)Nc2cc(C(=O)NCc3ccnnc3)ccc2C)cc1 | 1300 | 
Cc1ccc(C(=O)NCc2cccnc2)cc1NS(=O)(=O)c1ccc(C(C)C)cc1 | 1000 | 
Cc1ccc(S(=O)(=O)Nc2cc(C(=O)NCc3cnccn3)ccc2C)cc1 | > 10000 | 

Continued, in another order:

IC50 [1] [nM] | SMILES | other results
65 | Cc1ccc(S(=O)(=O)Nc2cc(C(=O)NCc3ccc(Cl)nc3)ccc2C)cc1 | 
40 | CCc1ccc(S(=O)(=O)Nc2cc(C(=O)NCc3cccnc3)ccc2C)cc1 | 
340 | Cc1ccc(S(=O)(=O)Nc2cc(Cl)cc(C(=O)NCc3cccnc3)c2)cc1 | 
510 | Cc1ccc(S(=O)(=O)Nc2cc(C(=O)NC(C)c3cnccn3)ccc2C)cc1 (stereo not drawn) | 
790 | Cc1ccc(S(=O)(=O)Nc2cc(C(=O)NCc3cccnc3)ccc2F)cc1 | 
12 | Cc1ccc(CNC(=O)c2ccc(C)c(NS(=O)(=O)c3ccc(C4CC4)cc3)c2)cn1 | 
900 | Cc1ccc(C(=O)NCc2cccnc2)cc1NS(=O)(=O)c1ccc2c(c1)CCC2 | 
700 | Cc1ccc(S(=O)(=O)Nc2cccc(C(=O)NCc3cccnc3)c2)cc1 | 
500 | Cc1ccc(S(=O)(=O)Nc2cc(C(=O)NCc3cccnc3)ccc2C)c(C)c1 | 
340 | Cc1ccc(S(=O)(=O)Nc2cc(C)cc(C(=O)NCc3cccnc3)c2)cc1 | 
50 | Cc1ccc(C(=O)NCc2cccnc2)cc1NS(=O)(=O)c1ccc(C2CC2)cc1 | 
200 | Cc1ccc(S(=O)(=O)Nc2cc(C(=O)NCc3ccc(C(F)(F)F)nc3)ccc2C)cc1 | 
610 | Cc1ccc(C(=O)NCc2cccnc2)cc1NS(=O)(=O)c1ccc2c(c1)OCO2 | 
< 1 | CC(=O)O[C@H]1C(=O)[C@@]2(C)[C@H]([C@H](OC(=O)c3ccccc3)[C@]3(O)C[C@H](OC(=O)[C@H](O)[C@@H](NC(=O)c4ccccc4)c4ccccc4)C(C)=C1C3(C)C)[C@]1(OC(C)=O)CO[C@@H]1C[C@@H]2O [PACLITAXEL] | inhibition in vivo at 24 mg/kg [2]: 53.8%; IC50 [3]: < 1 nM; IC50 [4]: < 1 nM; IC50 [5]: 71 nM; IC50 [6]: < 1 nM; IC50 [7]: 10 nM; IC50 [8]: < 1 nM; IC50 [9]: < 1 nM; IC50 [10]: 86 nM; IC50 [11]: 390 nM; IC50 [12]: < 1 nM; IC50 [13]: 9 nM; IC50 [14]: < 1 nM; IC50 [15]: < 1 nM; IC50 [16]: 190 nM; IC50 [17]: < 1 nM
860 | CCc1ccc(C(=O)NCc2cccnc2)cc1NS(=O)(=O)c1ccc(C)cc1 | 
860 | CCOc1ccc(S(=O)(=O)Nc2cc(C(=O)NCc3cccnc3)ccc2C)cc1 | 
420 | Cc1ccc(C(=O)NCc2cccnc2)cc1NS(=O)(=O)c1ccc2c(c1)OCCO2 | 
120 | Cc1ccc(S(=O)(=O)Nc2cc(C(=O)NCc3cccnc3)ccc2C)cc1 | 
800 | Cc1ccc(S(=O)(=O)Nc2cc(C(=O)NCc3cccnc3)ccc2Cl)cc1 | 
180 | COc1ccc(S(=O)(=O)Nc2cc(C(=O)NCc3cccnc3)ccc2C)cc1 | 
11 | CCc1ccc(S(=O)(=O)Nc2cc(C(=O)NCc3ccc(C)nc3)ccc2C)cc1 | 
800 | Cc1ccc(S(=O)(=O)Nc2cc(C(=O)NC3(c4cnccn4)CC3)ccc2C)cc1 | 
900 | Cc1ccc(S(=O)(=O)Nc2cc(F)cc(C(=O)NCc3cccnc3)c2)cc1 | 
